Data from US8969516B2, “Method of hydrolysis of peptide bond” (priority 2006, dated 2015).

Experiment: MALDI-TOF screening of Ni^2+ dependent hydrolysis in a combinatorial peptide library
Format: physicochemical
Settings: Ni^2+ 2 mM, pH 8.2, 10 mM Tris, score=24/tm
Outline: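 MALDI-TOF spectra taken at 2, 4, 6 and 8 h tracked the appearance of Ser/Thr-X-His-Z-Lys-Phe-Leu-NH2 cleavage products and the fall in substrate signals. Reactions: 1 mM peptide mixture, 2 mM Ni^2+, 10 mM Tris pH 8.2, at 37 or 45 °C; X/Z substitutions ranked by summed scores.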

[1] = CH3CO-Gly-Ala-Thr-X-His-Z-Lys-Phe-Leu-NH2 library, 37° C.
[2] = CH3CO-Gly-Ala-Thr-X-His-Z-Lys-Phe-Leu-NH2 library, 45° C.
[3] = CH3CO-Gly-Ala-Ser-X-His-Z-Lys-Phe-Leu-NH2 library, 37° C.
[4] = CH3CO-Gly-Ala-Ser-X-His-Z-Lys-Phe-Leu-NH2 library, 45° C.

Substance: Ac-GATIHFKFL-NH2 [TIHF]
- hydrolysis score from MALDI-TOF screening [1]: 0 (a score of 0 if no trace of the product of hydrolysis was seen after 8 hours of incubation)
- hydrolysis score from MALDI-TOF screening [2]: 0 (a score of 0 if no trace of the product of hydrolysis was seen after 8 hours of incubation)

Substance: Ac-GATKHTKFL-NH2 [TKHT]
- hydrolysis score from MALDI-TOF screening [1]: 0 (a score of 0 if no trace of the product of hydrolysis was seen after 8 hours of incubation)
- hydrolysis score from MALDI-TOF screening [2]: 0 (a score of 0 if no trace of the product of hydrolysis was seen after 8 hours of incubation)

Substance: Ac-GASPHRKFL-NH2 [SPHR]
- hydrolysis score from MALDI-TOF screening [3]: 0 (a score of 0 if no trace of the product of hydrolysis was seen after 8 hours of incubation)
- hydrolysis score from MALDI-TOF screening [4]: 0 (a score of 0 if no trace of the product of hydrolysis was seen after 8 hours of incubation)

Substance: Ac-GATRHFKFL-NH2 [TRHF]
- hydrolysis score from MALDI-TOF screening [1]: 3 (a score of 3 for detection at 8 hours)
- hydrolysis score from MALDI-TOF screening [2]: 4 (a score of 4 for detection at 6 hours)

Substance: Ac-GATIHGKFL-NH2 [TIHG]
- hydrolysis score from MALDI-TOF screening [1]: 0 (a score of 0 if no trace of the product of hydrolysis was seen after 8 hours of incubation)
- hydrolysis score from MALDI-TOF screening [2]: 0 (a score of 0 if no trace of the product of hydrolysis was seen after 8 hours of incubation)

Substance: Ac-GASYHYKFL-NH2 [SYHY]
- hydrolysis score from MALDI-TOF screening [3]: 3 (a score of 3 for detection at 8 hours)
- hydrolysis score from MALDI-TOF screening [4]: 4 (a score of 4 for detection at 6 hours)

Substance: Ac-GASKHAKFL-NH2 [SKHA]
- hydrolysis score from MALDI-TOF screening [3]: 0 (a score of 0 if no trace of the product of hydrolysis was seen after 8 hours of incubation)
- hydrolysis score from MALDI-TOF screening [4]: 0 (a score of 0 if no trace of the product of hydrolysis was seen after 8 hours of incubation)

Substance: Ac-GATRHIKFL-NH2 [TRHI]
- hydrolysis score from MALDI-TOF screening [1]: 6 (a score of 6 for detection at 4 hours)
- hydrolysis score from MALDI-TOF screening [2]: 12 (a score of 12, if it was seen to be partially hydrolysed at 2 hours)

Substance: Ac-GASVHNKFL-NH2 [SVHN]
- hydrolysis score from MALDI-TOF screening [3]: 0 (a score of 0 if no trace of the product of hydrolysis was seen after 8 hours of incubation)
- hydrolysis score from MALDI-TOF screening [4]: 0 (a score of 0 if no trace of the product of hydrolysis was seen after 8 hours of incubation)

Substance: Ac-GATHHKKFL-NH2 [THHK]
- hydrolysis score from MALDI-TOF screening [1]: 6 (a score of 6 for detection at 4 hours)
- hydrolysis score from MALDI-TOF screening [2]: 12 (a score of 12, if it was seen to be partially hydrolysed at 2 hours)

Substance: Ac-GATQHAKFL-NH2 [TQHA]
- hydrolysis score from MALDI-TOF screening [1]: 0 (a score of 0 if no trace of the product of hydrolysis was seen after 8 hours of incubation)
- hydrolysis score from MALDI-TOF screening [2]: 0 (a score of 0 if no trace of the product of hydrolysis was seen after 8 hours of incubation)

Substance: Ac-GATTHNKFL-NH2 [TTHN]
- hydrolysis score from MALDI-TOF screening [1]: 0 (a score of 0 if no trace of the product of hydrolysis was seen after 8 hours of incubation)
- hydrolysis score from MALDI-TOF screening [2]: 0 (a score of 0 if no trace of the product of hydrolysis was seen after 8 hours of incubation)

Substance: Ac-GATQHKKFL-NH2 [TQHK]
- hydrolysis score from MALDI-TOF screening [1]: 0 (a score of 0 if no trace of the product of hydrolysis was seen after 8 hours of incubation)
- hydrolysis score from MALDI-TOF screening [2]: 3 (a score of 3 for detection at 8 hours)

Substance: Ac-GATSHMKFL-NH2 [TSHM]
- hydrolysis score from MALDI-TOF screening [1]: 0 (a score of 0 if no trace of the product of hydrolysis was seen after 8 hours of incubation)
- hydrolysis score from MALDI-TOF screening [2]: 0 (a score of 0 if no trace of the product of hydrolysis was seen after 8 hours of incubation)

Substance: Ac-GASGHWKFL-NH2 [SGHW]
- hydrolysis score from MALDI-TOF screening [3]: 3 (a score of 3 for detection at 8 hours)
- hydrolysis score from MALDI-TOF screening [4]: 4 (a score of 4 for detection at 6 hours)

Substance: Ac-GATRHGKFL-NH2 [TRHG]
- hydrolysis score from MALDI-TOF screening [1]: 0 (a score of 0 if no trace of the product of hydrolysis was seen after 8 hours of incubation)
- hydrolysis score from MALDI-TOF screening [2]: 0 (a score of 0 if no trace of the product of hydrolysis was seen after 8 hours of incubation)

Substance: Ac-GASFHTKFL-NH2 [SFHT]
- hydrolysis score from MALDI-TOF screening [3]: 0 (a score of 0 if no trace of the product of hydrolysis was seen after 8 hours of incubation)
- hydrolysis score from MALDI-TOF screening [4]: 0 (a score of 0 if no trace of the product of hydrolysis was seen after 8 hours of incubation)

Substance: Ac-GASMHLKFL-NH2 [SMHL]
- hydrolysis score from MALDI-TOF screening [3]: 4 (a score of 4 for detection at 6 hours)
- hydrolysis score from MALDI-TOF screening [4]: 12 (a score of 12, if it was seen to be partially hydrolysed at 2 hours)

Substance: Ac-GASWHQKFL-NH2 [SWHQ]
- hydrolysis score from MALDI-TOF screening [3]: 0 (a score of 0 if no trace of the product of hydrolysis was seen after 8 hours of incubation)
- hydrolysis score from MALDI-TOF screening [4]: 0 (a score of 0 if no trace of the product of hydrolysis was seen after 8 hours of incubation)

Substance: Ac-GATMHIKFL-NH2 [TMHI]
- hydrolysis score from MALDI-TOF screening [1]: 0 (a score of 0 if no trace of the product of hydrolysis was seen after 8 hours of incubation)
- hydrolysis score from MALDI-TOF screening [2]: 0 (a score of 0 if no trace of the product of hydrolysis was seen after 8 hours of incubation)

Substance: Ac-GASMHRKFL-NH2 [SMHR]
- hydrolysis score from MALDI-TOF screening [3]: 4 (a score of 4 for detection at 6 hours)
- hydrolysis score from MALDI-TOF screening [4]: 6 (a score of 6 for detection at 4 hours)

Substance: Ac-GATKHSKFL-NH2 [TKHS]
- hydrolysis score from MALDI-TOF screening [1]: 0 (a score of 0 if no trace of the product of hydrolysis was seen after 8 hours of incubation)
- hydrolysis score from MALDI-TOF screening [2]: 0 (a score of 0 if no trace of the product of hydrolysis was seen after 8 hours of incubation)

Substance: Ac-GASGHKKFL-NH2 [SGHK]
- hydrolysis score from MALDI-TOF screening [3]: 0 (a score of 0 if no trace of the product of hydrolysis was seen after 8 hours of incubation)
- hydrolysis score from MALDI-TOF screening [4]: 3 (a score of 3 for detection at 8 hours)

Substance: Ac-GASYHWKFL-NH2 [SYHW]
- hydrolysis score from MALDI-TOF screening [3]: 6 (a score of 6 for detection at 4 hours)
- hydrolysis score from MALDI-TOF screening [4]: 6 (a score of 6 for detection at 4 hours)

Substance: Ac-GATKHEKFL-NH2 [TKHE]
- hydrolysis score from MALDI-TOF screening [1]: 0 (a score of 0 if no trace of the product of hydrolysis was seen after 8 hours of incubation)
- hydrolysis score from MALDI-TOF screening [2]: 0 (a score of 0 if no trace of the product of hydrolysis was seen after 8 hours of incubation)

Substance: Ac-GATQHEKFL-NH2 [TQHE]
- hydrolysis score from MALDI-TOF screening [1]: 0 (a score of 0 if no trace of the product of hydrolysis was seen after 8 hours of incubation)
- hydrolysis score from MALDI-TOF screening [2]: 0 (a score of 0 if no trace of the product of hydrolysis was seen after 8 hours of incubation)

Substance: Ac-GASYHTKFL-NH2 [SYHT]
- hydrolysis score from MALDI-TOF screening [3]: 0 (a score of 0 if no trace of the product of hydrolysis was seen after 8 hours of incubation)
- hydrolysis score from MALDI-TOF screening [4]: 0 (a score of 0 if no trace of the product of hydrolysis was seen after 8 hours of incubation)

Substance: Ac-GATLHVKFL-NH2 [TLHV]
- hydrolysis score from MALDI-TOF screening [1]: 0 (a score of 0 if no trace of the product of hydrolysis was seen after 8 hours of incubation)
- hydrolysis score from MALDI-TOF screening [2]: 0 (a score of 0 if no trace of the product of hydrolysis was seen after 8 hours of incubation)

Substance: Ac-GATGHTKFL-NH2 [TGHT]
- hydrolysis score from MALDI-TOF screening [1]: 0 (a score of 0 if no trace of the product of hydrolysis was seen after 8 hours of incubation)
- hydrolysis score from MALDI-TOF screening [2]: 0 (a score of 0 if no trace of the product of hydrolysis was seen after 8 hours of incubation)

Substance: Ac-GASQHTKFL-NH2 [SQHT]
- hydrolysis score from MALDI-TOF screening [3]: 0 (a score of 0 if no trace of the product of hydrolysis was seen after 8 hours of incubation)
- hydrolysis score from MALDI-TOF screening [4]: 0 (a score of 0 if no trace of the product of hydrolysis was seen after 8 hours of incubation)
